Measured values as given in patent publication US9896423B2, “Deuterium substituted 1-[2-(2,4-dimethyl-phenylsulfanyl)-phenyl]piperazine compound or derivatives thereof, and pharmaceutical composition and use thereof” (Jiangsu Jibeier Pharmaceutical Co. Ltd., priority 2014, dated 2018).
“And” between values parts separate entries of the source, which are not always exact repeats. Equal entries are not always repeated. Where two headings read alike, the source gives them in different places.

Assay: Pharmacokinetic test in rats, intravenous injection
Assay type: in vivo, SD rats
Settings: for concentration at 0.25 h / concentration at 0.5 h / concentration at 1 h / concentration at 2 h / concentration at 3 h: Sprague-Dawley, intravenous, 2 mg/kg iv
Protocol: The preferred compound of the present disclosure was assessed in rats for its pharmacokinetic profile.
SD rats, male and female, weighing 150 to 250 g
Mobile phase: 10 mM ammonium formate aqueous solution:methanol=15:85
The ionization source was electrospray ionization source. The detection mode was positive mode. Multiple reaction monitoring (MRM) was used as the scanning mode. The ion reaction for the quantitative analysis was the following: m/z was 305.2\150.0 for XX, and 256.1\167.1 for diphenhydramine (the internal standard).
Four male SD rats were taken. The dosage was calculated as 5 mL/kg body weight and 2 mg/kg. XX or YY was dissolved in DMSO (3% of a total volume) and castor oil (3% of the total volume) was added to the solution, followed by agitating with a vortex mixer. Subsequently, saline was added to the mixture to the total volume to afford the intravenous injection for the rats. The injections were intravenously administered to four male SD rats. Blood from the rats' orbits was collected 3 min, 8 min, 15 min, 30 min, 1 hr, 2 hr, 3 hr, 4 hr, 6 hr, 9 hr, 12 hr and 24 hr later after the injection, respectively.
After the blood collection, the tubes were immediately gently turned upside down at least five times to ensure sufficient mixing, and placed on ice. Heparin was added for anticoagulation. The samples were centrifuged at 8000 rpm for 5 min to separate serum from erythrocyte. The serum was transferred with a pipettor to 2 mL polypropylene (PP) tubes, which were marked with the name of the compound and the time points, and stored in a refrigerator at −40° C. before LC-MS analysis. Samples with high concentrations were diluted with rat blank plasma.
2.5 μL of Meth-H2O and 5 μL of the internal standard solution (20 ng/mL, IS) were added to 50 μL of the plasma. Subsequently, 150 μL of methanol was added to the mixture to precipitate protein and the samples were then centrifuged at 13000 rpm for 5 min. The upper organic phase was taken out, filtrated with a 0.22 μM microporous membrane, and 2 μL of the sample was injected for the LC-MS analysis.

[1] = male, rat, plasma, 2 mg/kg, individual rats, read-out: Concentrations in Plasma of Rats after Intravenous Injection
[2] = male, rat, plasma, 2 mg/kg, mean, read-out: Concentrations in Plasma of Rats after Intravenous Injection, Mean ± SD
[3] = rats, iv 2 mg/kg, individual rats, 2 mg/kg

Cc1ccc(Sc2ccccc2N2CCNCC2)c(C)c1 [YY, 1-[2-(2,4-dimethyl-phenylsulfanyl)-phenyl]piperazine]
AUC(0-inf) (male, SD, rat, plasma, iv, 2 mg/kg, rats, iv 2 mg/kg, XX n = 4, YY n = 3, read-out: AUC0-∞, Mean ± SD): 654 ± 23.9 ng·h/mL
Cmax (male, SD, rat, plasma, iv, 2 mg/kg, rats, iv 2 mg/kg, XX n = 4, YY n = 3, read-out: Cmax, Mean ± SD): 214 ± 38.9 ng/mL
MRT inf (male, SD, rat, plasma, iv, 2 mg/kg, rats, iv 2 mg/kg, XX n = 4, YY n = 3, read-out: MRT0-∞, Mean ± SD): 6.42 ± 0.19 h
Vd (male, SD, rat, plasma, iv, 2 mg/kg, rats, iv 2 mg/kg, XX n = 4, YY n = 3, read-out: Vz, Mean ± SD): 26.6 ± 0.52 L/kg
half-life (male, SD, rat, plasma, iv, 2 mg/kg, rats, iv 2 mg/kg, XX n = 4, YY n = 3, read-out: t1/2, Mean ± SD (converted)): 6.03 ± 0.27 h
AUC(0-t) (male, SD, rat, plasma, iv, 2 mg/kg, rats, iv 2 mg/kg, individual rats 1-3 (Table 11), read-out: AUC0-t): 594 ng·h/mL
AUC(0-inf) (male, SD, rat, plasma, iv, 2 mg/kg, rats, iv 2 mg/kg, individual rats, read-out: AUC0-∞): 628 ng·h/mL
Cmax (male, SD, rat, plasma, iv, 2 mg/kg, rats, iv 2 mg/kg, individual rats, read-out: Cmax): 225 ng/mL
MRT inf (male, SD, rat, plasma, iv, 2 mg/kg, rats, iv 2 mg/kg, individual rats, read-out: MRT0-∞): 6.56 h
Vd (male, SD, rat, plasma, iv, 2 mg/kg, rats, iv 2 mg/kg, individual rats, read-out: Vz): 26.3 L/kg
half-life (male, SD, rat, plasma, iv, 2 mg/kg, rats, iv 2 mg/kg, individual rats, read-out: t1/2 (converted)): 5.72 h
AUC(0-t) (male, SD, rat, plasma, iv, 2 mg/kg, rats, iv 2 mg/kg, n = 3 (Table 11), read-out: AUC0-t, Mean ± SD): 619 ± 22.2 ng·h/mL
concentration at 0.25 h [1]: 78.1 ng/mL
concentration at 0.25 h [2]: 137 ± 6.05 ng/mL
concentration at 0.5 h [1]: 76.6 ng/mL
concentration at 0.5 h [2]: 124 ± 13 ng/mL
concentration at 1 h [1]: 72.2 ng/mL
concentration at 1 h [2]: 94.2 ± 6.06 ng/mL
concentration at 2 h [1]: 60.7 ng/mL
concentration at 2 h [2]: 86.4 ± 16.8 ng/mL
concentration at 3 h [1]: 49.6 ng/mL
concentration at 3 h [2]: 67 ± 10.2 ng/mL
CL, Mean ± SD (rats, iv 2 mg/kg, XX n = 4, YY n = 3): 3.06 ± 0.11 L/h/k
AUC(0-t) (rats, iv 2 mg/kg, individual rats 1-3 (Table 11), 2 mg/kg): 637.9 ng·h/mL and 624.3 ng·h/mL
AUC0-∞ [3]: 674.6 ng·h/mL and 660.5 ng·h/mL
CL [3]: 3.19 L/h/k and 2.97 L/h/k and 3.03 L/h/k
Cmax [3]: 246.0 ng/mL and 170.6 ng/mL
MRT0-∞ [3]: 6.20 h and 6.50 h
Vz [3]: 27.2 L/kg
t1/2 [3]: 6.15 h and 6.22 h
